Results published in ChEMBL document CHEMBL1201862, “PubChem BioAssay data set” (2004).
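Values below derive from 48-hour exposures of cells grown in 96-well plates, with endpoints linearly interpolated between the two concentrations bracketing the appropriate inhibition level. GI50 = concentration required for 50% inhibition of growth.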 Activity calls are given as the source filed them. Rule as the data show it: active = GI50 up to about 1.1 µM and inactive = higher.

How the values were obtained:
Test in all cases: growth of human tumour cells (NCI), 48 h
Hs-578T = tested on: Hs-578T
HCT-116 = tested on: HCT-116
OVCAR-3 = tested on: OVCAR-3
SF-268 = tested on: SF-268
IGROV-1 = tested on: IGROV-1
SK-MEL-2 = tested on: SK-MEL-2
COLO 205 = tested on: COLO 205
SF-539 = tested on: SF-539
A549 = tested on: A549
MDA-MB-435 = tested on: MDA-MB-435
UACC-257 = tested on: UACC-257
RPMI-8226 = tested on: RPMI-8226
SF-295 = tested on: SF-295
HCT-15 = tested on: HCT-15
SK-MEL-28 = tested on: SK-MEL-28
NCI-H23 = tested on: NCI-H23
BT-549 = tested on: BT-549
HOP-92 = tested on: HOP-92
NCI-H226 = tested on: NCI-H226
HL-60 = tested on: HL-60
M14 = tested on: M14
MCF7 = tested on: MCF7
Malme-3M = tested on: Malme-3M
TK-10 = tested on: TK-10
K562 = tested on: K562
786-0 = tested on: 786-0
ACHN = tested on: ACHN
RXF 393 = tested on: RXF 393
SN12C = tested on: SN12C
SK-MEL-5 = tested on: SK-MEL-5
OVCAR-8 = tested on: OVCAR-8
U-251 = tested on: U-251
SNB-75 = tested on: SNB-75
NCI/ADR-RES = tested on: NCI/ADR-RES
UO-31 = tested on: UO-31
SR = tested on: SR
SNB-19 = tested on: SNB-19
SW-620 = tested on: SW-620
OVCAR-4 = tested on: OVCAR-4
OVCAR-5 = tested on: OVCAR-5
LOX IMVI = tested on: LOX IMVI
MDA-N = tested on: MDA-N
SK-OV-3 = tested on: SK-OV-3
T47D = tested on: T47D
NCI-H522 = tested on: NCI-H522
HT-29 = tested on: HT-29
DU-145 = tested on: DU-145
CAKI-1 = tested on: CAKI-1
HOP-62 = tested on: HOP-62
MDA-MB-231 = tested on: MDA-MB-231
EKVX = tested on: EKVX
CCRF-CEM = tested on: CCRF-CEM
KM12 = tested on: KM12
MOLT-4 = tested on: MOLT-4
PC-3 = tested on: PC-3
HCC 2998 = tested on: HCC 2998
UACC-62 = tested on: UACC-62
NCI-H460 = tested on: NCI-H460

## N#CC(NNC(=O)c1c(Cl)c(Cl)c(Cl)c(Cl)c1-c1nc2cc(C(=O)c3ccccc3)ccc2[nH]1)c1ccccc1 (stereo not given)
Hs-578T
  GI50: 6.78 µM (inactive)
HCT-116
  GI50: 10.6 µM (inactive)
OVCAR-3
  GI50: 4.57 µM (inactive)
SF-268
  GI50: 7.83 µM (inactive)
IGROV-1
  GI50: 12.5 µM (inactive)
SK-MEL-2
  GI50: 8.91 µM (inactive)
COLO 205
  GI50: 10 µM (inactive)
SF-539
  GI50: 3.18 µM (inactive)
A549
  GI50: 6.76 µM (inactive)
MDA-MB-435
  GI50: 2.82 µM (inactive)
UACC-257
  GI50: 9.98 µM (inactive)
RPMI-8226
  GI50: 6.85 µM (inactive)
SF-295
  GI50: 3.68 µM (inactive)
HCT-15
  GI50: 4.74 µM
SK-MEL-28
  GI50: 17.8 µM (inactive)
NCI-H23
  GI50: 7.45 µM (inactive)
BT-549
  GI50: 9.2 µM (inactive)
HOP-92
  GI50: 15 µM (inactive)
NCI-H226
  GI50: 9.2 µM (inactive)
HL-60
  GI50: 4.69 µM (inactive)
M14
  GI50: 7.46 µM (inactive)
MCF7
  GI50: 2.9 µM (inactive)
Malme-3M
  GI50: 8.57 µM (inactive)
TK-10
  GI50: 21.8 µM (inactive)
K562
  GI50: 3.24 µM (inactive)
786-0
  GI50: 12.2 µM (inactive)
ACHN
  GI50: 10.6 µM (inactive)
RXF 393
  GI50: 3.18 µM (inactive)
SN12C
  GI50: 6.61 µM (inactive)
SK-MEL-5
  GI50: 3.4 µM (inactive)
OVCAR-8
  GI50: 23.7 µM (inactive)
U-251
  GI50: 15.8 µM (inactive)
SNB-75
  GI50: 3.95 µM (inactive)
NCI/ADR-RES
  GI50: 3.43 µM (inactive)
UO-31
  GI50: 14 µM (inactive)
SR
  GI50: 2.84 µM (inactive)
SNB-19
  GI50: 12.4 µM (inactive)
SW-620
  GI50: 8.87 µM (inactive)
OVCAR-4
  GI50: 7.13 µM (inactive)
OVCAR-5
  GI50: 26.5 µM (inactive)
LOX IMVI
  GI50: 9.35 µM (inactive)
MDA-N
  GI50: 2.56 µM (inactive)
SK-OV-3
  GI50: 13 µM (inactive)
T47D
  GI50: 4.79 µM (inactive)
NCI-H522
  GI50: 3.39 µM (inactive)
HT-29
  GI50: 8.53 µM (inactive)
DU-145
  GI50: 24.3 µM (inactive)
CAKI-1
  GI50: 21.4 µM (inactive)
HOP-62
  GI50: 7.82 µM (inactive)
MDA-MB-231
  GI50: 9.2 µM (inactive)
EKVX
  GI50: 17.9 µM (inactive)
CCRF-CEM
  GI50: 4.02 µM (inactive)
KM12
  GI50: 7.45 µM (inactive)
MOLT-4
  GI50: 3.22 µM (inactive)
PC-3
  GI50: 7.14 µM (inactive)

## COC(=O)C(Cc1ccccc1)NC(=O)C(CCCNC(=N)N)NC(=O)OCc1ccccc1 (stereo not given)
Hs-578T
  GI50: > 100 µM (inactive)
HCT-116
  GI50: > 100 µM (inactive)
OVCAR-3
  GI50: > 100 µM (inactive)
SF-268
  GI50: > 100 µM (inactive)
IGROV-1
  GI50: > 100 µM (inactive)
COLO 205
  GI50: > 100 µM (inactive)
A549
  GI50: > 100 µM (inactive)
MDA-MB-435
  GI50: > 100 µM (inactive)
RPMI-8226
  GI50: > 100 µM (inactive)
SF-295
  GI50: > 100 µM (inactive)
HCT-15
  GI50: > 100 µM
SK-MEL-28
  GI50: > 100 µM (inactive)
NCI-H23
  GI50: > 100 µM (inactive)
BT-549
  GI50: > 100 µM (inactive)
HOP-92
  GI50: > 100 µM (inactive)
NCI-H226
  GI50: > 100 µM (inactive)
HL-60
  GI50: > 100 µM (inactive)
M14
  GI50: > 100 µM (inactive)
MCF7
  GI50: > 100 µM (inactive)
Malme-3M
  GI50: > 100 µM (inactive)
TK-10
  GI50: > 100 µM (inactive)
K562
  GI50: > 100 µM (inactive)
786-0
  GI50: > 100 µM (inactive)
ACHN
  GI50: > 100 µM (inactive)
RXF 393
  GI50: > 100 µM (inactive)
SN12C
  GI50: > 100 µM (inactive)
SK-MEL-5
  GI50: > 100 µM (inactive)
OVCAR-8
  GI50: > 100 µM (inactive)
U-251
  GI50: > 100 µM (inactive)
SNB-75
  GI50: > 100 µM (inactive)
NCI/ADR-RES
  GI50: > 100 µM (inactive)
HCC 2998
  GI50: > 100 µM (inactive)
UO-31
  GI50: > 100 µM (inactive)
SR
  GI50: > 100 µM (inactive)
SNB-19
  GI50: > 100 µM (inactive)
SW-620
  GI50: > 100 µM (inactive)
OVCAR-4
  GI50: > 100 µM (inactive)
OVCAR-5
  GI50: > 100 µM (inactive)
LOX IMVI
  GI50: > 100 µM (inactive)
MDA-N
  GI50: > 100 µM (inactive)
UACC-62
  GI50: > 100 µM (inactive)
SK-OV-3
  GI50: > 100 µM (inactive)
T47D
  GI50: > 100 µM (inactive)
NCI-H522
  GI50: > 100 µM (inactive)
HT-29
  GI50: > 100 µM (inactive)
DU-145
  GI50: > 100 µM (inactive)
CAKI-1
  GI50: > 100 µM (inactive)
HOP-62
  GI50: > 100 µM (inactive)
MDA-MB-231
  GI50: > 100 µM (inactive)
EKVX
  GI50: > 100 µM (inactive)
CCRF-CEM
  GI50: > 100 µM (inactive)
NCI-H460
  GI50: > 100 µM (inactive)
KM12
  GI50: > 100 µM (inactive)
MOLT-4
  GI50: > 100 µM (inactive)
PC-3
  GI50: > 100 µM (inactive)
